Test system: latex-allergic or sensitive users
Assay: Gentian violet admixed with liquid latex: allergic reactions in users
Settings: gentian violet admixed with liquid latex prior to membrane formation; 1.5% by weight solution preferred
Description: According to one aspect of the invention, gentian violet is admixed with liquid latex prior to membrane formation by dipping or spraying techniques. A wide variety of different concentrations may be used, but a 1.5% by weight solution of gentian violet is preferred. […] Other proteing binding biocides may be employed in place of or in combination with gentian violet.

Row | Structure (SMILES) | allergic reactions in latex-allergic or sensitive users
1 | CN(C)c1ccc(C(=C2C=CC(=[N+](C)C)C=C2)c2ccc(N(C)C)cc2)cc1 [gentian violet] | minimize allergic reactions

Test system: not given
Assay: not given
Settings: candidate solvents for polyurethane and biocide; cited from earlier work

Row | Structure (SMILES) | Hydrogen Bonding
2 | CCC(=O)CC [Diethyl ketone] | medium
3 | CC(=O)N(C)C [Dimethyl acetamide (DMF), Dimethyl acetamide] | medium
4 | C[S+](C)[O-] [Dimethyl sulfoxide (DMS), Dimethyl sulfoxide] | medium
5 | CCOCCO [Ethylene glycol monoethyl ether] | medium
6 | CCC(C)=O [Methyl ethyl ketone] | medium
7 | C1CCOC1 [Tetrahydrofuran (THF), Tetrahydrofuran] | medium
8 | Cc1cccc(O)c1 [m-Cresol] | strong

— patent publication US20010018095A1, “Method of forming a membrant, especially a latex or polymer membrane, including multiple discrete layers” (priority 1987, published 2001)
